US8324223B2, “Substituted thieno [2,3-d] pyrimidines as HIV inhibitors” (priority 2006, dated 2012)

Key:
Assay in all cases: microbe, parasite or virus in culture
Assay type in all cases: cell-based, human immunodeficiency virus type 1 (HIV-1)
[1] = test system: HIV-1 L100I-K103N; details: Human immunodeficiency virus 1, HeLa, read-out: EC50 L100I-K103N (nM)
[2] = test system: wild type HIV-1; details: Human immunodeficiency virus 1, Hela-JC53, read-out: EC50 WT (nM)
[3] = test system: HIV-1 Y181C; details: Human immunodeficiency virus 1, HeLa, read-out: EC50 Y181C (nM)
[4] = test system: HIV-1 Y188L; details: Human immunodeficiency virus 1, HeLa, read-out: EC50 Y188L (nM)

Cc1cc(C)c(Oc2nc(Nc3ccc(C#N)cc3)nc3ccsc23)c(C)c1 [Cpd 1]
EC50 [1]: 10 to 100 nM | EC50 [2]: < 10 nM | EC50 [3]: < 10 nM | EC50 [4]: < 10 nM

Cc1cc(C)c(Nc2nc(Nc3ccc(C#N)cc3)nc3ccsc23)c(C)c1 [Cpd 2]
EC50 [1]: > 100 nM | EC50 [2]: < 10 nM | EC50 [3]: 10 to 100 nM | EC50 [4]: > 100 nM

Cc1cc(C#N)cc(C)c1Oc1nc(Nc2ccc(C#N)cc2)nc2ccsc12 [Cpd 3]
EC50 [1]: < 10 nM | EC50 [2]: < 10 nM | EC50 [3]: 10 to 100 nM | EC50 [4]: < 10 nM

Cc1cc(C)c(Oc2nc(Nc3ccc(C#N)cc3)nc3sccc23)c(C)c1 [Cpd 4]
EC50 [1]: 10 to 100 nM | EC50 [2]: < 10 nM | EC50 [3]: 10 to 100 nM | EC50 [4]: 10 to 100 nM

Cc1cc(C)c(Oc2nc(Nc3ccc(C#N)cc3)nc3sc4c(c23)CCCC4)c(C)c1 [Cpd 5]
EC50 [1]: > 100 nM | EC50 [2]: 10 to 100 nM | EC50 [3]: > 100 nM | EC50 [4]: > 100 nM

Cc1cc(C)c(Oc2nc(Nc3ccc(C#N)cc3)nc3c(C)csc23)c(C)c1 [Cpd 6]
EC50 [1]: 10 to 100 nM | EC50 [2]: 10 to 100 nM | EC50 [3]: 10 to 100 nM | EC50 [4]: 10 to 100 nM

Cc1cc(C#N)cc(C)c1Oc1nc(Nc2ccc(C#N)cc2)nc2sccc12 [Cpd 7]
EC50 [1]: 10 to 100 nM | EC50 [2]: < 10 nM | EC50 [3]: < 10 nM | EC50 [4]: < 10 nM

Cc1cc(C)c(Nc2nc(Nc3ccc(C#N)cc3)nc3c(C)csc23)c(C)c1 [Cpd 8]
EC50 [2]: < 10 nM | EC50 [3]: 10 to 100 nM | EC50 [4]: 10 to 100 nM

Cc1cc(C#N)cc(C)c1Oc1nc(Nc2ccc(C#N)cc2)nc2c(C)csc12 [Cpd 9]
EC50 [1]: < 10 nM | EC50 [2]: < 10 nM | EC50 [3]: < 10 nM | EC50 [4]: < 10 nM
